Experimental data from patent publication US20200181117A1, “SUBSTITUTED 3-HETEROARYLOXY-1H-PYRAZOLES AND SALTS THEREOF AND THEIR USE AS HERBICIDAL ACTIVE SUBSTANCES” (BAYER CROPSCIENCE AKTIENGESELLSCHAFT, priority 2017, published 2020).

Key:
Assay type in all cases: in vivo
[1] = system: Abutilon theophrasti; assay: Post-emergence herbicidal action; details: 1280 g/ha, rated visually after about 3 weeks vs untreated controls
Description: (§1) A. Post-Emergence Herbicidal Action and Crop Plant Compatibility Seeds of monocotyledonous and dicotyledonous weeds and crop plants were placed in sandy loam in plastic or wood-fiber pots, covered with soil and cultivated in a greenhouse under controlled growth conditions. 2 to 3 weeks after sowing, the test plants were treated at the one-leaf stage. The compounds of the invention, formulated in the form of wettable powders (WP) or as emulsion concentrates (EC), were then sprayed onto the green parts of the plants as aqueous suspension or emulsion with addition of 0.5% additive at a water application rate of 600 l/ha (converted). After the test plants had been kept in the greenhouse under optimum growth conditions for about 3 weeks, the activity of the preparations was rated visually in comparison to untreated controls. For example, 100% activity=the plants have died, 0% activity=like control plants. Tables B1 to B15 below show the effects of selected compounds of the general formula (I) according to Table I on various harmful plants and an application rate corresponding to 1280 g/ha, which were obtained by the experimental procedure mentioned above.

[2] = system: Alopecurus myosuroides; assay: Post-emergence herbicidal action; details: 1280 g/ha, rated visually after about 3 weeks vs untreated controls
Description: as §1

[3] = system: Amaranthus retroflexus; assay: Post-emergence herbicidal action; details: 1280 g/ha, rated visually after about 3 weeks vs untreated controls
Description: as §1

[4] = system: Echinochloa crus-galli; assay: Post-emergence herbicidal action; details: 1280 g/ha, rated visually after about 3 weeks vs untreated controls
Description: as §1

[5] = system: Pharbitis purpurea; assay: Post-emergence herbicidal action; details: 1280 g/ha, rated visually after about 3 weeks vs untreated controls
Description: as §1

[6] = system: Setaria viridis; assay: Post-emergence herbicidal action; details: 1280 g/ha, rated visually after about 3 weeks vs untreated controls
Description: as §1

[7] = system: Viola tricolor; assay: Post-emergence herbicidal action; details: 1280 g/ha, rated visually after about 3 weeks vs untreated controls
Description: as §1

[8] = system: Abutilon theophrasti; assay: Pre-emergence herbicidal action; details: 1280 g/ha, scored visually after about 3 weeks vs untreated controls
From the text: (§2) Pre-Emergence Herbicidal Action and Crop Plant Compatibility Seeds of monocotyledonous and dicotyledonous weed plants and crop plants were placed in plastic or wood fiber pots and covered with soil. The compounds of the invention, formulated in the form of wettable powders (WP) or as emulsion concentrates (EC), were then applied onto the surface of the covering soil as aqueous suspension or emulsion with addition of 0.5% additive at a water application rate of 600 l/ha (converted). After the treatment, the pots were placed in a greenhouse and kept under good growth conditions for the test plants. After about 3 weeks, the effect of the preparations was scored visually in comparison with untreated controls as percentages. For example, 100% activity=the plants have died, 0% activity=like control plants. Tables C1 to C14 below show the effects of selected compounds of the general formula (I) according to Table I on various harmful plants and an application rate corresponding to 1280 g/ha, which were obtained by the experimental procedure mentioned above.

[9] = system: Alopecurus myosuroides; assay: Pre-emergence herbicidal action; details: 1280 g/ha, scored visually after about 3 weeks vs untreated controls
From the text: as §2

[10] = system: Amaranthus retroflexus; assay: Pre-emergence herbicidal action; details: 1280 g/ha, scored visually after about 3 weeks vs untreated controls
From the text: as §2

[11] = system: Avena fatua; assay: Pre-emergence herbicidal action; details: 1280 g/ha, scored visually after about 3 weeks vs untreated controls
From the text: as §2

[12] = system: Echinochloa crus-galli; assay: Pre-emergence herbicidal action; details: 1280 g/ha, scored visually after about 3 weeks vs untreated controls
From the text: as §2

[13] = system: Hordeum murinum; assay: Pre-emergence herbicidal action; details: 1280 g/ha, scored visually after about 3 weeks vs untreated controls
From the text: as §2

[14] = system: Lolium rigidum; assay: Pre-emergence herbicidal action; details: 1280 g/ha, scored visually after about 3 weeks vs untreated controls
From the text: as §2

[15] = system: Matricaria inodora; assay: Pre-emergence herbicidal action; details: 1280 g/ha, scored visually after about 3 weeks vs untreated controls
From the text: as §2

[16] = system: Polygonum convolvulus; assay: Pre-emergence herbicidal action; details: 1280 g/ha, scored visually after about 3 weeks vs untreated controls
From the text: as §2

[17] = system: Setaria viridis; assay: Pre-emergence herbicidal action; details: 1280 g/ha, scored visually after about 3 weeks vs untreated controls
From the text: as §2

[18] = system: Stellaria media; assay: Pre-emergence herbicidal action; details: 1280 g/ha, scored visually after about 3 weeks vs untreated controls
From the text: as §2

[19] = system: Veronica persica; assay: Pre-emergence herbicidal action; details: 1280 g/ha, scored visually after about 3 weeks vs untreated controls
From the text: as §2

[20] = system: Viola tricolor; assay: Pre-emergence herbicidal action; details: 1280 g/ha, scored visually after about 3 weeks vs untreated controls
From the text: as §2

[21] = system: Polygonum convolvulus; assay: Post-emergence herbicidal action; details: 1280 g/ha, rated visually after about 3 weeks vs untreated controls
Description: as §1

[22] = system: Veronica persica; assay: Post-emergence herbicidal action; details: 1280 g/ha, rated visually after about 3 weeks vs untreated controls
Description: as §1

[23] = system: Stellaria media; assay: Post-emergence herbicidal action; details: 1280 g/ha, rated visually after about 3 weeks vs untreated controls
Description: as §1

Row | SMILES | herbicidal activity on Abutilon theophrasti [1] [%] | herbicidal activity on Alopecurus myosuroides [2] [%] | herbicidal activity on Amaranthus retroflexus [3] [%] | herbicidal activity on Echinochloa crus-galli [4] [%] | herbicidal activity on Pharbitis purpurea [5] [%] | herbicidal activity on Setaria viridis [6] [%] | herbicidal activity on Viola tricolor [7] [%] | herbicidal activity on Abutilon theophrasti [8] [%] | herbicidal activity on Alopecurus myosuroides [9] [%] | herbicidal activity on Amaranthus retroflexus [10] [%] | herbicidal activity on Echinochloa crus-galli [12] [%] | herbicidal activity on Hordeum murinum [13] [%] | herbicidal activity on Lolium rigidum [14] [%] | herbicidal activity on Matricaria inodora [15] [%] | herbicidal activity on Polygonum convolvulus [16] [%] | herbicidal activity on Setaria viridis [17] [%] | herbicidal activity on Stellaria media [18] [%] | herbicidal activity on Veronica persica [19] [%] | herbicidal activity on Viola tricolor [20] [%] | herbicidal activity on Polygonum convolvulus [21] [%] | also measured
1 | Cc1c(Sc2cccc(Cl)c2)c(Oc2ncc(F)cn2)nn1C [Example I-091] | 80 | 80 | 80 | 80 | 80 | 100 | 100 | 100 | 100 | 100 | 100 | 100 | 90 | 100 | 100 | 100 | 100 | 100 | 100 | – | herbicidal activity on Avena fatua [11]: 90%
2 | COc1cnc(Oc2nn(C)c(C)c2Sc2cccc(Cl)c2)nc1 [Example I-134] | 90 | 90 | 100 | 80 | 80 | – | 100 | 100 | 100 | 100 | 90 | 90 | 100 | 100 | 100 | 100 | 100 | 100 | 100 | 80 | herbicidal activity on Avena fatua [11]: 80%
3 | CC(C)n1cc(Sc2ccc(F)cc2)c(Oc2ncc(Cl)cn2)n1 [Example I-137] | – | – | 80 | – | – | – | 100 | – | – | 100 | – | – | – | – | 100 | 100 | 100 | – | 100 | – | herbicidal activity on Veronica persica [22]: 90%
4 | CCc1c(Sc2ccc(F)c(F)c2)c(Oc2ncc(F)cn2)nn1C [Example I-037] | 90 | – | 100 | – | 100 | 100 | 100 | 100 | 100 | 100 | 100 | 90 | 100 | 90 | 100 | 100 | 100 | 100 | 100 | 80 | herbicidal activity on Stellaria media [23]: 100%
5 | Cc1c(Sc2ccc(F)cc2F)c(Oc2ncccn2)nn1C [Example I-044, 2-[4-(2,4-Difluorophenyl)sulfanyl-1,5-dimethylpyrazol-3-yl]oxypyrimidine] | 100 | 90 | 100 | 100 | 100 | 100 | 100 | 100 | 100 | 100 | 100 | 90 | 90 | 100 | 90 | 100 | 100 | 100 | 100 | 100 | herbicidal activity on Stellaria media [23]: 100%; herbicidal activity on Avena fatua [11]: 100%
6 | Cc1c(Sc2cccc(F)c2)c(Oc2ncccn2)nn1C [Example I-092] | 100 | 90 | 100 | 100 | 80 | 100 | 100 | 100 | 100 | 100 | 100 | 100 | 100 | 100 | 90 | 100 | 90 | 100 | 90 | 100 | herbicidal activity on Stellaria media [23]: 100%; herbicidal activity on Avena fatua [11]: 90%
7 | Fc1cnc(Oc2nn3c(c2Sc2ccc(F)cc2F)CCOCC3)nc1 [Example I-192] | 80 | 80 | – | 80 | – | – | 80 | 100 | 100 | 80 | 100 | 90 | – | 100 | 100 | 100 | 90 | 100 | 100 | 100 | –
8 | Cc1c(Sc2ccc(F)cc2)c(Oc2ncc(F)cn2)nn1C [Example I-090] | 100 | 100 | 100 | 80 | – | 100 | 100 | 100 | 100 | 100 | 100 | 100 | 90 | 100 | 90 | 100 | 100 | 100 | 100 | 100 | herbicidal activity on Stellaria media [23]: 100%; herbicidal activity on Avena fatua [11]: 100%
9 | Cn1cc(Sc2ccc(Cl)cc2)c(Oc2ncc(Cl)cn2)n1 [Example I-188] | – | – | 100 | – | – | – | – | – | – | 100 | 80 | – | – | – | – | 100 | 90 | – | 100 | – | herbicidal activity on Veronica persica [22]: 100%
